Read-outs that look alike come from different tables or passages of the source.
Target: JAK3 enzyme (Homo sapiens (Human), UniProt P52333)
Experiment: JAK Caliper Enzyme Assay at 4 μM or 1 mM ATP
Format: biochemical
[1] = read-out: JAK3 (4 μM ATP) IC50, 4 μM ATP
[2] = read-out: JAK3 (1 mM ATP) IC50, 1 mM ATP

Chain of JAK3 enzyme (P52333 whole entry, species assumed): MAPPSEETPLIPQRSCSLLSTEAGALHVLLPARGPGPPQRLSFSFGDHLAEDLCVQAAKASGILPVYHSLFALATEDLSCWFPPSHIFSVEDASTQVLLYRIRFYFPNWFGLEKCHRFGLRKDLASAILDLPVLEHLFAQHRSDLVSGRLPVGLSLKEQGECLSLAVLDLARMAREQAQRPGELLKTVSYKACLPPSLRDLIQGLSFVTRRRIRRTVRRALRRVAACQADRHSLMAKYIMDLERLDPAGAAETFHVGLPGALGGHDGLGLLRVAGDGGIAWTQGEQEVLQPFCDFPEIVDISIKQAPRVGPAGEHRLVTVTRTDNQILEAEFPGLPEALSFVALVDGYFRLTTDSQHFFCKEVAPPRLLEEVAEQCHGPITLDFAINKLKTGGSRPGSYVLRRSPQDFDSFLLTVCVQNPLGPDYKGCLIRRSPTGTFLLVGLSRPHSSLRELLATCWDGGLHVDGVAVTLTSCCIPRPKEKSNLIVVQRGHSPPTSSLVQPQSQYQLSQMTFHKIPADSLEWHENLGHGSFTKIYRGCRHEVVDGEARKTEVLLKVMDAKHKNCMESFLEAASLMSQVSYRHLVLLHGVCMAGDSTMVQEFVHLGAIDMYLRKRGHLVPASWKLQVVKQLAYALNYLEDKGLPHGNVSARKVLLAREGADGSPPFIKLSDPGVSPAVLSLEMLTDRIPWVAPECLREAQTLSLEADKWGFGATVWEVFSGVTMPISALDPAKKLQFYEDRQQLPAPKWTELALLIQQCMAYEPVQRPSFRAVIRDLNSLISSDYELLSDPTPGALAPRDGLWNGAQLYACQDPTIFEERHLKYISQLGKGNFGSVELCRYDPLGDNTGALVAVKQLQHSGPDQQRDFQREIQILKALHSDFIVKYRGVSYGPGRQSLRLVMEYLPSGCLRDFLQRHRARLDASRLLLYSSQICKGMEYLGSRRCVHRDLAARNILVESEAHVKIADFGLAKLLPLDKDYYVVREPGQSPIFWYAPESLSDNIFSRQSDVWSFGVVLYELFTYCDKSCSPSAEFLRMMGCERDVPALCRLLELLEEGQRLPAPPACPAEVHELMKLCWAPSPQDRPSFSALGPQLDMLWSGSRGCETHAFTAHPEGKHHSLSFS

| IC50 [1] [µM] | IC50 [2] [µM] | Structure (SMILES) |
| --- | --- | --- |
| 0.0009 | 0.0718 | C=CC(=O)N1CCC(Oc2cnc3[nH]cc(-c4cccc(C(=O)NC)c4)c3n2)CC1 [Example 227, 3-{2-[(1-acryloylpiperidin-4-yl)oxy]-5H-pyrrolo[2,3-b]pyrazin-7-yl}-N-methylbenzamide] |
| 0.0002 | 0.0073 | C=CC(=O)N1CCC(Nc2cnc3[nH]cc(C(=O)NC[C@H](C)CC(F)(F)F)c3n2)CC1 [Example 241, 2-[(1-acryloylpiperidin-4-yl)amino]-N-[(2R)-4,4,4-trifluoro-2-methylbutyl]-5H-pyrrolo[2,3-b]pyrazine-7-carboxamide] |
| 0.0002 | 0.0063 | C=CC(=O)N1CCC(Nc2cnc3[nH]cc(C(=O)NC4CCCCC4)c3n2)CC1 [Example 278, 2-[(1-acryloylpiperidin-4-yl)amino]-N-cyclohexyl-5H-pyrrolo[2,3-b]pyrazine-7-carboxamide] |
| < 0.0003 | 0.0111 | C=CC(=O)N1CCC(Nc2cnc3[nH]cc(C(=O)NC(C)(C)CC)c3n2)CC1 [Example 276, 2-[(1-acryloylpiperidin-4-yl)amino]-N-(2-methylbutan-2-yl)-5H-pyrrolo[2,3-b]pyrazine-7-carboxamide] |
| 0.0002 | 0.0129 | C=CC(=O)N1CCC(Nc2cnc3[nH]cc(C(=O)NCC(C)(F)F)c3n2)CC1 [Example 282, 2-[(1-acryloylpiperidin-4-yl)amino]-N-(2,2-difluoropropyl)-5H-pyrrolo[2,3-b]pyrazine-7-carboxamide] |
| 0.0002 | 0.0074 | C=CC(=O)N1CCC(Nc2cnc3[nH]cc(C(=O)NCCC#N)c3n2)CC1 [Example 261, 2-[(1-acryloylpiperidin-4-yl)amino]-N-(2-cyanoethyl)-5H-pyrrolo[2,3-b]pyrazine-7-carboxamide] |
| > 10 | – | C/C=C/C(=O)N1CCC[C@@H](Nc2ncnc3[nH]cc(C(=O)NCCOC)c23)C1 [Example 149, 4-({(3R)-1-[(2E)-but-2-enoyl]piperidin-3-yl}amino)-N-(2-methoxyethyl)-7H-pyrrolo[2,3-d]pyrimidine-5-carboxamide] |
| 0.0006 | 0.047 | C=CC(=O)N1CCC(Nc2cnc3[nH]cc(C(=O)NCC4(O)CCCC(F)(F)C4)c3n2)CC1 (stereo not shown) [Example 249, 2-[(1-acryloylpiperidin-4-yl)amino]-N-[(3,3-difluoro-1-hydroxycyclohexyl)methyl]-5H-pyrrolo[2,3-b]pyrazine-7-carboxamide] |
| 2.48 | > 1 | C/C=C/C(=O)N1CCC[C@@H](Nc2ncnc3[nH]ccc23)C1 [Example 95, (2E)-1-[(3R)-3-(7H-pyrrolo[2,3-d]pyrimidin-4-ylamino)piperidin-1-yl]but-2-en-1-one] |
| 0.0002 | 0.0088 | C=CC(=O)N1CCC(Nc2cnc3[nH]cc(C(=O)NCC(C)C)c3n2)CC1 [Example 272, 2-[(1-acryloylpiperidin-4-yl)amino]-N-(2-methylpropyl)-5H-pyrrolo[2,3-b]pyrazine-7-carboxamide] |
| 0.0182 | 3.39 | C=CC(=O)N1C[C@H](Nc2ncnc3[nH]ccc23)C[C@@H](N(C)C)C1 [Example 88, 1-[(3R,5R)-3-(Dimethylamino)-5-(7H-pyrrolo[2,3-d]pyrimidin-4-ylamino)piperidin-1-yl]prop-2-en-1-one] |
| 0.0008 | 0.0889 | C=CC(=O)N1CCC(Nc2cnc3[nH]cc(-c4ccncc4F)c3n2)CC1 [Example 200, 1-(4-{[7-(3-fluoropyridin-4-yl)-5H-pyrrolo[2,3-b]pyrazin-2-yl]amino}piperidin-1-yl)prop-2-en-1-one] |
| 0.001 | 0.0765 | C=CC(=O)N1CCC[C@@H](Nc2ncnc3[nH]cc(CC#N)c23)C1 [Example 20, (R)-2-(4-((1-Acryloylpiperidin-3-yl)amino)-7H-pyrrolo[2,3-d]pyrimidin-5-yl)acetonitrile] |
| 0.0005 | 0.0321 | C=CC(=O)N1CC[C@H](F)[C@@H](Nc2ncnc3[nH]ccc23)C1 [Example 4, 1-((3S,4S)-3-((7H-pyrrolo[2,3-d]pyrimidin-4-yl)amino)-4-fluoropiperidin-1-yl)prop-2-en-1-one] |
| 0.0012 | 0.2 | C=CC(=O)N1CCN(c2cnc3[nH]cc(C(=O)NC(C)C)c3n2)C[C@H]1CC [Example 311, 2-[(3R)-4-acryloyl-3-ethylpiperazin-1-yl]-N-(propan-2-yl)-5H-pyrrolo[2,3-b]pyrazine-7-carboxamide] |
| 0.0002 | 0.0092 | C=CC(=O)N1CC[C@@H](Nc2cnc3[nH]cc(C(=O)NC(C)C)c3n2)[C@H](F)C1 [Example 291, 2-{[(3R,4R)-1-acryloyl-3-fluoropiperidin-4-yl]amino}-N-(propan-2-yl)-5H-pyrrolo[2,3-b]pyrazine-7-carboxamide] |
| 0.0005 | 0.0493 | C=CC(=O)N1CCC(Nc2cnc3[nH]cc(-c4cccc(C(=O)NC)c4)c3n2)CC1 [Example 204, 3-{2-[(1-acryloylpiperidin-4-yl)amino]-5H-pyrrolo[2,3-b]pyrazin-7-yl}-N-methylbenzamide] |

More lines, now with the values behind:

| Structure (SMILES) | IC50 [1] [µM] | IC50 [2] [µM] |
| --- | --- | --- |
| C=CC(=O)N1CCC(Nc2cnc3[nH]cc(-c4ccc(S(C)(=O)=O)cc4)c3n2)CC1 [Example 203, 1-[4-({7-[4-(methylsulfonyl)phenyl]-5H-pyrrolo[2,3-b]pyrazin-2-yl}amino)piperidin-1-yl]prop-2-en-1-one] | 0.002 | 0.148 |
| C=CC(=O)N1C[C@H](Nc2ncnc3[nH]ccc23)C[C@@H](OC)C1 [Example 77, 1-[(3R,5R)-3-Methoxy-5-(7H-pyrrolo[2,3-d]pyrimidin-4-ylamino)piperidin-1-yl]prop-2-en-1-one] | 0.0155 | 2.07 |
| C=CC(=O)N1C[C@H](Nc2ncnc3[nH]ccc23)CC[C@@H]1CC (single isomer, unassigned) [Example 9] | 0.0004 | 0.0539 |
| C=CC(=O)N[C@H]1C[C@H](Nc2cnc3[nH]cc(C(=O)NC(C)C)c3n2)C1 [Example 198, 2-{[trans-3-(acryloylamino)cyclobutyl]amino}-N-(propan-2-yl)-5H-pyrrolo[2,3-b]pyrazine-7-carboxamide] | 0.001 | 0.0776 |
| C=CC(=O)N1CCC(Nc2cnc3[nH]cc(C(=O)NC(C)(C)C)c3n2)CC1 [Example 266, 2-[(1-acryloylpiperidin-4-yl)amino]-N-tert-butyl-5H-pyrrolo[2,3-b]pyrazine-7-carboxamide] | 0.0003 | 0.0136 |
| COCCc1c[nH]c2ncnc(N[C@@H]3CCCN(C(=O)/C=C/CN(C)C)C3)c12 [Example 108, (2E)-4-(dimethylamino)-1-[(3R)-3-{[5-(2-methoxyethyl)-7H-pyrrolo[2,3-d]pyrimidin-4-yl]amino}pipendin-1-yl]but-2-en-1-one] | 0.528 | > 10 |
| C=CC(=O)N1CC[C@@H]2CN(c3cnc4[nH]cc(C(=O)NC(C)C)c4n3)C[C@@H]21 [Example 170, 2-[(3aR,6aR)-1-acryloylhexahydropyrrolo[3,4-b]pyrrol-5(1H)-yl]-N-(propan-2-yl)-5H-pyrrolo[2,3-b]pyrazine-7-carboxamide] | 0.0033 | 0.393 |
| C=CC(=O)N1C[C@H](O)C[C@@H](Nc2ncnc3[nH]ccc23)C1 [Example 60, 1-((3R,5R)-3-((7H-Pyrrolo[2,3-d]pyrimidin-4-yl)amino)-5-hydroxypiperidin-1-yl)prop-2-en-1-one] | 0.0042 | 0.603 |
| C=CC(=O)N1CCC(Nc2cnc3[nH]cc(C(=O)NCC4CCCC4)c3n2)CC1 [Example 270, 2-[(1-acryloylpiperidin-4-yl)amino]-N-(cyclopentylmethyl)-5H-pyrrolo[2,3-b]pyrazine-7-carboxamide] | < 0.0001 | 0.0086 |
| C=CC(=O)N1CCCN(c2cnc3[nH]cc(C(=O)NC(C)C)c3n2)CC1 [Example 185, 2-(4-acryloyl-1,4-diazepan-1-yl)-N-(propan-2-yl)-5H-pyrrolo[2,3-b]pyrazine-7-carboxamide] | 0.0204 | 1.46 |
| C=CC(=O)N1CC[C@@H](Nc2cnc3[nH]cc(C(=O)NC(C)C)c3n2)[C@@H](OC)C1 [Example 302, 2-{[(3S,4R)-1-acryloyl-3-methoxypiperidin-4-yl]amino}-N-(propan-2-yl)-5H-pyrrolo[2,3-b]pyrazine-7-carboxamide] | 0.0012 | 0.0494 |
| C=CC(=O)N1C[C@H](Nc2ncnc3[nH]ccc23)[C@H]2CC[C@@H]1C2 [Example 127, 1-((1R,4R,5S)-4-(7H-pyrrolo[2,3-d]pyrimidin-4-ylamino)-2-azabicyclo[3.2.1]octan-2-yl)prop-2-en-1-one] | 0.19 | > 10 |
| C=CC(=O)N1CCC[C@H](Nc2ncnc3[nH]ccc23)C1 [Example 104, 1-[(3S)-3-(7H-pyrrolo[2,3-d]pyrimidin-4-ylamino)piperidin-1-yl]prop-2-en-1-one] | 0.0645 | – |

From patent US20250134869A1, “Pyrrolo[2,3-d]pyrimidinyl, Pyrrolo[2,3-b]pyrazinyl and Pyrrolo[2,3-d]pyridinyl Acryla-mides” (Pfizer Inc, priority 2021, published 2025)
